# Data from patent publication US11162063B2, “Methods and apparatus for conditioning cell populations for cell therapies” (THE BOARD OF REGENTS OF THE UNIVERSITY OF TEXAS SYSTEM, priority 2015, dated 2021).
# “Also recorded” adds a separate entry of the source.
# Key:
# [1] = system: COX2 protein in human MSC; experiment: Western blot of intracellular COX2 protein in shear stressed MSCs; format: cell-based; details: 10 μM, 8 hours of fluid shear stress
# Method: A pilot study was conducted to provide proof of principle that fluid shear stress can be used to condition stem cells, alter gene expression, and enhance functional activities. To exemplify the conditioning activity of shear stress of the type provided by the present system, but on a much smaller analytical scale, force (shear stress) was applied using custom fabricated slides or IBIDI® small-scale microfluidics channel slides obtained from IBIDI, LLC. (Verona, Wis., USA). Human samples were harvested from bone marrow (BM), amniotic fluid (AF), or adipose (AD) tissue, processed for isolation and expansion of hMSC, and stored frozen. Frozen hMSCs were thawed and seeded into T225 cell culture flasks with 50 ml Minimum Essential Medium (MEM-α) (20% FBS, 5% Penicillin/Streptomycin, 5% Glutamine). The media was replaced every 3-4 days. hMSCs were maintained in culture until they were almost 100% confluent. […] The number of live cells present was determined using trypan blue dye exclusion. Live cell counts were determined on a hemacytometer and the cells were resuspended to obtain the desired concentration for each assay (see Table 1). […]
# Similarly it was determined utilizing commercially available ELISAs that the media from human MSCs cultures that had been subject to fluid shear stress also contained immunomodulatory proteins, such as prostaglandin E2. […]
# [2] = system: TNF-α secretion by activated splenocytes; experiment: TNF-α cytokine suppression assay, MSC co-culture with LPS or PHA-activated splenocytes; format: cell-based, mouse; details: 10 μM; for effect on the ability of shear treated MSC to suppress TNF-α production: six MSC donor lines
# Excerpt: FIG. 22 illustrates TNF-α cytokine suppression assays that highlight functional enhancement of MSC immunomodulation. Human MSCs preconditioned by mechanical force (15 dyne/cm2 shear stress for 3 hrs) are placed in static co-culture with lipopoly-saccharide (LPS) or phytohaemagglutinin (PHA)-activated splenocytes including macrophages, neutrophils, NK, B, and T cells. […] Lower values correspond to greater anti-inflammatory potency. hBM MSC, human bone marrow MSC; hAF MSC, amniotic fluid MSC (indicated by a “*” in graph); hAD MSC, adipose-derived MSC (indicated by a “^” in graph). P-values calculated by paired t-test, equal variance.
# (§1) Similarly it was determined utilizing commercially available ELISAs that the media from human MSCs cultures that had been subject to fluid shear stress also contained immunomodulatory proteins, such as prostaglandin E2. In addition, Western blotting confirmed elevated protein levels (translation) of COX2, TSG6, and IL1RN. Actin protein expression levels, which are constant, were used as a control for baseline protein expression. […] It was also determined that this induction could be abrogated by the addition of 10 uM of the NF-kappaB antagonist BAY11-7085 (FIG. 21). Furthermore by utilizing commercially available ELISAs, it was determined that the media from human MSCs cultures that had been subject to fluid shear stress for as little as 3 hours had immunosuppressive activity, as evidenced by the 10-50% reduction in TNF-α when treated hMSCs were co-cultured with activated immune cells from the spleen (FIG. 22).
# [3] = system: human amniotic fluid MSC; experiment: Priming agents combined with shear stress, anti-inflammatory signaling in hAF MSC; format: cell-based
# Method: FIG. 24 illustrates that priming agents complement shear-induced anti-inflammatory signaling. Darkened bars represent treatment combinations that indicate a substantial induction of the pathway by shear stress and cytokines (IFN-γ, 20 ng/ml; TNF-α, 50 ng/ml). In this low-performance human amniotic MSC line, TSG6 was induced by shear stress only. IDO was induced by IFN-γ only. hAF MSC, human amniotic fluid MSC.
# as §1
compound,measurement,setting,value
CC(C)(C)c1ccc(S(=O)(=O)/C=C/C#N)cc1 [BAY11-7085],effect on shear-induced COX2 protein,[1],abrogated; also recorded: reduced
same,effect on the ability of shear treated MSC to suppress TNF-α production,[2],abrogate the positive effects of shear stress
COc1ccc2c(c1)c(CC(=O)O)c(C)n2C(=O)c1ccc(Cl)cc1 [Indomethacin],effect on the ability of shear treated MSC to suppress TNF-α production,[2],abrogate the positive effects of shear stress
CS(=O)(=O)Nc1ccc([N+](=O)[O-])cc1OC1CCCCC1 [NS-398],effect on the ability of shear treated MSC to suppress TNF-α production,[2],abrogate the positive effects of shear stress
"CCCCC(C)(C)C(O)C=CC1C(O)CC(=O)C1CC=CCCCC(=O)O (stereo not shown) [dmPGE2, 16,16′-dimethyl prostaglandin E2]",effect of ectopic agent on TNF-α production,[2]; compared with sheared MSCs,reduced TNF-α to levels produced in the presence of sheared MSCs; also recorded: mimics MSC suppression
"IFN-γ: cytokine priming agent, 20 ng/ml",induction of COX2 and HMOX1 in sheared MSCs with added priming agent,[3]; IFN-γ 20 ng/ml plus shear stress,greater induction
same,IDO induction,"[3]; IFN-γ 20 ng/ml, low-performance human amniotic MSC line",induced
